# Test results taken from ChEMBL document CHEMBL3885861, “Open TG-GATES”.
# Species: Rattus norvegicus
# Assay: Open TG-GATES - Regimen: Single
# Assay type: toxicity, organism-based, Sprague-Dawley
# Set-up: regimen Single, gender Male, age 6 weeks
# Details: in vivo, po, route gavage; for APTT / Bas / Eos / Fbg / Hb / Ht / Lym / MCH / MCHC / MCV / Mono / Neu / PT / Plat / Ret / WBC: tissue Blood; for KIDNEY_L / KIDNEY_R / KIDNEY_TOTAL: tissue Kidney; for LIVER: tissue Liver; for ALP / ALT / AST / BUN / CRE / Ca / DBIL / GLC / IP / K / LDH / Na / PL / RALB / TBIL / TC / TG / TP / gamma-GTP: tissue Plasma
# [1] = 30 mg/kg, 3 h, dose level Middle
# [2] = 30 mg/kg, 6 h, dose level Middle
# [3] = 30 mg/kg, 9 h, dose level Middle
# [4] = 30 mg/kg, 24 h, dose level Middle
# [5] = 100 mg/kg, 3 h, dose level High
# [6] = 100 mg/kg, 6 h, dose level High
# [7] = 100 mg/kg, 9 h, dose level High
# [8] = 100 mg/kg, 24 h, dose level High
smiles,measurement,setting,value
CN(C)CCCN1c2ccccc2CCc2ccc(Cl)cc21 [CLOMIPRAMINE],APTT,[1],16.4 s
same,Bas,[1],0.2%
same,Eos,[1],0.6%
same,Fbg,[1],254 mg/dL
same,Hb,[1],14.2 g/dL
same,Ht,[1],43.6%
same,Lym,[1],71.2%
same,MCH,[1],21 pg
same,MCHC,[1],32.6%
same,MCV,[1],64.5 fL
same,Mono,[1],2.8%
same,Neu,[1],24%
same,PT,[1],13.6 s
same,Plat,[1],115.5 x10_4/uL
same,Ret,[1],7.9%
same,WBC,[1],95.4 x10_2/uL
same,KIDNEY_L,[1],1 g
same,KIDNEY_R,[1],1 g
same,KIDNEY_TOTAL,[1],1.9 g
same,LIVER,[1],9.7 g
same,ALP,[1],1675.2 IU/L
same,ALT,[1],38.4 IU/L
same,AST,[1],77.8 IU/L
same,BUN,[1],9.8 mg/dL
same,CRE,[1],0.2 mg/dL
same,Ca,[1],10.8 mg/dL
same,DBIL,[1],0.016 mg/dL
same,GLC,[1],187.8 mg/dL
same,IP,[1],9.6 mg/dL
same,K,[1],4 meq/L
same,LDH,[1],96 IU/L
same,Na,[1],141 meq/L
same,PL,[1],145.4 mg/dL
same,RALB,[1],2.5 g/dL
same,TBIL,[1],0.062 mg/dL
same,TC,[1],75.2 mg/dL
same,TG,[1],78.8 mg/dL
same,TP,[1],5.2 g/dL
same,gamma-GTP,[1],1 IU/L
same,TERMINAL_BW,[2],214.2 g
same,APTT,[2],15.9 s
same,Bas,[2],0.2%
same,Eos,[2],0.8%
same,Fbg,[2],241.2 mg/dL
same,Hb,[2],14.1 g/dL
same,Ht,[2],43.9%
same,Lym,[2],78.2%
same,MCH,[2],20.2 pg
same,MCHC,[2],32.2%
same,MCV,[2],62.8 fL
same,Mono,[2],2.6%
same,Neu,[2],17.2%
same,PT,[2],13.7 s
same,Plat,[2],114.1 x10_4/uL
same,Ret,[2],7.6%
same,WBC,[2],82.3 x10_2/uL
same,KIDNEY_L,[2],1 g
same,KIDNEY_R,[2],1 g
same,KIDNEY_TOTAL,[2],2 g
same,LIVER,[2],9.2 g
same,ALP,[2],1672.6 IU/L
same,ALT,[2],39.2 IU/L
same,AST,[2],73.8 IU/L
same,BUN,[2],7.2 mg/dL
same,CRE,[2],0.2 mg/dL
same,DBIL,[2],0.02 mg/dL
same,GLC,[2],186.4 mg/dL
same,IP,[2],9.9 mg/dL
same,K,[2],4.2 meq/L
same,LDH,[2],75.4 IU/L
same,Na,[2],141.4 meq/L
same,PL,[2],134.6 mg/dL
same,RALB,[2],2.5 g/dL
same,TBIL,[2],0.068 mg/dL
same,TC,[2],74.4 mg/dL
same,TG,[2],55.8 mg/dL
same,TP,[2],5.3 g/dL
same,gamma-GTP,[2],1.2 IU/L
same,TERMINAL_BW,[3],211.3 g
same,APTT,[3],17.1 s
same,Bas,[3],0%
same,Eos,[3],1.2%
same,Fbg,[3],273.6 mg/dL
same,Hb,[3],13.9 g/dL
same,Ht,[3],42.6%
same,Lym,[3],77.8%
same,MCH,[3],20.4 pg
same,MCHC,[3],32.6%
same,MCV,[3],62.6 fL
same,Mono,[3],2.2%
same,Neu,[3],17.8%
same,PT,[3],13.8 s
same,Plat,[3],124.6 x10_4/uL
same,Ret,[3],7.7%
same,WBC,[3],83.2 x10_2/uL
same,KIDNEY_L,[3],1 g
same,KIDNEY_R,[3],0.9 g
same,KIDNEY_TOTAL,[3],1.9 g
same,LIVER,[3],8.5 g
same,ALP,[3],1468.8 IU/L
same,ALT,[3],36.2 IU/L
same,AST,[3],71.8 IU/L
same,BUN,[3],7.4 mg/dL
same,CRE,[3],0.2 mg/dL
same,Ca,[3],10.5 mg/dL
same,DBIL,[3],0.024 mg/dL
same,GLC,[3],174 mg/dL
same,IP,[3],10.5 mg/dL
same,K,[3],4.1 meq/L
same,LDH,[3],86.4 IU/L
same,Na,[3],140.6 meq/L
same,PL,[3],143 mg/dL
same,RALB,[3],2.6 g/dL
same,TBIL,[3],0.076 mg/dL
same,TC,[3],83.4 mg/dL
same,TG,[3],34.2 mg/dL
same,TP,[3],5.4 g/dL
same,gamma-GTP,[3],1 IU/L
same,TERMINAL_BW,[4],231.8 g
same,APTT,[4],16.9 s
same,Bas,[4],0%
same,Eos,[4],0.6%
same,Fbg,[4],247.6 mg/dL
same,Ht,[4],41.2%
same,Lym,[4],81.6%
same,MCH,[4],20.6 pg
same,MCHC,[4],32.3%
same,MCV,[4],63.9 fL
same,Mono,[4],2.6%
same,Neu,[4],14%
same,PT,[4],13.8 s
same,Plat,[4],116.6 x10_4/uL
same,Ret,[4],7.1%
same,WBC,[4],83.8 x10_2/uL
same,KIDNEY_L,[4],1 g
same,KIDNEY_R,[4],1 g
same,KIDNEY_TOTAL,[4],2.1 g
same,LIVER,[4],10.5 g
same,ALP,[4],2253 IU/L
same,ALT,[4],44.2 IU/L
same,AST,[4],76.8 IU/L
same,BUN,[4],13.2 mg/dL
same,CRE,[4],0.2 mg/dL
same,Ca,[4],10.9 mg/dL
same,DBIL,[4],0.028 mg/dL
same,GLC,[4],179 mg/dL
same,IP,[4],8 mg/dL
same,K,[4],4.1 meq/L
same,LDH,[4],93.8 IU/L
same,Na,[4],141.4 meq/L
same,PL,[4],159 mg/dL
same,RALB,[4],2.6 g/dL
same,TBIL,[4],0.062 mg/dL
same,TC,[4],80.2 mg/dL
same,TG,[4],115.2 mg/dL
same,TP,[4],5.5 g/dL
same,gamma-GTP,[4],1.2 IU/L
same,TERMINAL_BW,[5],215.5 g
same,APTT,[5],16.9 s
same,Bas,[5],0%
same,Eos,[5],0.8%
same,Fbg,[5],257.8 mg/dL
same,Hb,[5],14.1 g/dL
same,Ht,[5],43.3%
same,Lym,[5],77.8%
same,MCH,[5],21.2 pg
same,MCHC,[5],32.6%
same,MCV,[5],64.9 fL
same,Mono,[5],3.4%
same,Neu,[5],17.2%
same,PT,[5],13.5 s
same,Plat,[5],125.6 x10_4/uL
same,Ret,[5],8%
same,WBC,[5],69.8 x10_2/uL
same,KIDNEY_L,[5],1 g
same,KIDNEY_R,[5],0.9 g
same,KIDNEY_TOTAL,[5],1.9 g
same,LIVER,[5],10.1 g
same,ALP,[5],1835 IU/L
same,ALT,[5],42.8 IU/L
same,AST,[5],76.6 IU/L
same,BUN,[5],7.4 mg/dL
same,CRE,[5],0.1 mg/dL
same,Ca,[5],10.5 mg/dL
same,DBIL,[5],0.036 mg/dL
same,GLC,[5],188.8 mg/dL
same,IP,[5],9.6 mg/dL
same,K,[5],3.9 meq/L
same,LDH,[5],116.6 IU/L
same,Na,[5],142.2 meq/L
same,PL,[5],147 mg/dL
same,RALB,[5],2.5 g/dL
same,TBIL,[5],0.068 mg/dL
same,TC,[5],73.8 mg/dL
same,TG,[5],85.4 mg/dL
same,TP,[5],5.3 g/dL
same,gamma-GTP,[5],1 IU/L
same,TERMINAL_BW,[6],210.3 g
same,APTT,[6],17.8 s
same,Bas,[6],0%
same,Eos,[6],1%
same,Fbg,[6],276 mg/dL
same,Hb,[6],14.2 g/dL
same,Ht,[6],44%
same,Lym,[6],75.6%
same,MCH,[6],21.3 pg
same,MCHC,[6],32.2%
same,MCV,[6],66.2 fL
same,Mono,[6],2.8%
same,Neu,[6],20%
same,PT,[6],13.9 s
same,Plat,[6],125.1 x10_4/uL
same,Ret,[6],8.2%
same,WBC,[6],69.9 x10_2/uL
same,KIDNEY_L,[6],1 g
same,KIDNEY_R,[6],1 g
same,KIDNEY_TOTAL,[6],2 g
same,LIVER,[6],9.2 g
same,ALP,[6],1949.8 IU/L
same,ALT,[6],40.6 IU/L
same,AST,[6],76.2 IU/L
same,BUN,[6],6.8 mg/dL
same,CRE,[6],0.1 mg/dL
same,Ca,[6],10.4 mg/dL
same,DBIL,[6],0.042 mg/dL
same,GLC,[6],187.4 mg/dL
same,IP,[6],9.7 mg/dL
same,K,[6],4.1 meq/L
same,LDH,[6],103.8 IU/L
same,Na,[6],142.8 meq/L
same,PL,[6],134.6 mg/dL
same,RALB,[6],2.5 g/dL
same,TBIL,[6],0.064 mg/dL
same,TC,[6],71.4 mg/dL
same,TG,[6],53 mg/dL
same,TP,[6],5.2 g/dL
same,gamma-GTP,[6],1 IU/L
same,TERMINAL_BW,[7],208.4 g
same,APTT,[7],16.6 s
same,Bas,[7],0%
same,Eos,[7],1%
same,Fbg,[7],270.4 mg/dL
same,Hb,[7],14.1 g/dL
same,Ht,[7],43.6%
same,Lym,[7],71.2%
same,MCH,[7],21 pg
same,MCHC,[7],32.3%
same,MCV,[7],65.1 fL
same,Mono,[7],2%
same,Neu,[7],25.2%
same,PT,[7],13.9 s
same,Plat,[7],144.8 x10_4/uL
same,Ret,[7],8.1%
same,WBC,[7],72.8 x10_2/uL
same,KIDNEY_L,[7],1 g
same,KIDNEY_R,[7],1 g
same,KIDNEY_TOTAL,[7],2 g
same,LIVER,[7],9 g
same,ALP,[7],1702 IU/L
same,ALT,[7],32.4 IU/L
same,AST,[7],71.2 IU/L
same,BUN,[7],6.4 mg/dL
same,CRE,[7],0.1 mg/dL
same,Ca,[7],10.2 mg/dL
same,DBIL,[7],0.04 mg/dL
same,GLC,[7],194.6 mg/dL
same,IP,[7],9.8 mg/dL
same,K,[7],3.7 meq/L
same,LDH,[7],91 IU/L
same,Na,[7],142.6 meq/L
same,PL,[7],137.4 mg/dL
same,RALB,[7],2.5 g/dL
same,TBIL,[7],0.064 mg/dL
same,TC,[7],72.8 mg/dL
same,TG,[7],39 mg/dL
same,TP,[7],5.2 g/dL
same,gamma-GTP,[7],1 IU/L
same,TERMINAL_BW,[8],217.7 g
same,APTT,[8],19.3 s
same,Bas,[8],0.2%
same,Eos,[8],1%
same,Fbg,[8],278.8 mg/dL
same,Hb,[8],14.1 g/dL
same,Ht,[8],43.4%
same,Lym,[8],78.2%
same,MCH,[8],20.6 pg
same,MCHC,[8],32.5%
same,MCV,[8],63.5 fL
same,Mono,[8],2.6%
same,Neu,[8],17.4%
same,PT,[8],13.5 s
same,Plat,[8],144.2 x10_4/uL
same,Ret,[8],7.4%
same,WBC,[8],91.7 x10_2/uL
same,KIDNEY_L,[8],1 g
same,KIDNEY_R,[8],1 g
same,KIDNEY_TOTAL,[8],2 g
same,LIVER,[8],9.6 g
same,ALP,[8],1855 IU/L
same,ALT,[8],43 IU/L
same,AST,[8],69.8 IU/L
same,BUN,[8],15.4 mg/dL
same,CRE,[8],0.2 mg/dL
same,Ca,[8],10.8 mg/dL
same,DBIL,[8],0.046 mg/dL
same,GLC,[8],180.6 mg/dL
same,IP,[8],8.3 mg/dL
same,K,[8],4 meq/L
same,LDH,[8],92 IU/L
same,Na,[8],141.8 meq/L
same,PL,[8],168.4 mg/dL
same,RALB,[8],2.7 g/dL
same,TBIL,[8],0.056 mg/dL
same,TC,[8],98.2 mg/dL
same,TG,[8],96.2 mg/dL
same,TP,[8],5.7 g/dL
same,gamma-GTP,[8],1 IU/L
